Test results taken from patent publication US5466677A, “Dinucleoside phosphinates and their pharmaceutical compositions” (Ciba-Geigy Corporation, priority 1993, dated 1995).

Assays:
[1] = tested on: human cytomegalovirus (HCMV) (strain AD 169); test: plaque-reduction assay, HCMV in human embryonic fibroblasts; format: cell-based; details: Human betaherpesvirus 5, Fibroblast; HCMV strain AD 169, human embryonic fibroblasts, 7 to 10 days
Method: (§1) Compounds prepared in some of the previous Examples are tested for antiviral activity against herpes simplex virus type 1 (HSV-1) (strain 17i) and human cytomegalovirus (HCMV) (strain AD 169) in vitro. Aqueous solutions of the compounds are prepared at concentrations between 10 mM and 50 mM. The solutions are stored at -70° C. after preparation and thawed prior to use in the antiviral assays. After thawing, the solutions are diluted to the appropriate concentration in the cell-culturemedium without prior filtration.
(§2) In a procedure similar to that described by Tyros et al, J. Antimicrob. Chemother., 8, 65-72 (1981), cell monolayers are infected with 20-200 plaque forming units and after virus adsorption the inoculum is replaced by maintenance medium containing different concentrations of the compound under investigation. Virus spread is prevented by the incorporation of 0.5% low gelling temperature agarose. At the end of a set period (2 or 3 days for HSV and 7 to 10 days for HCMV) monolayers are fixed, stained with methylene blue and plaque numbers determined.

[2] = tested on: herpes simplex virus type 1 (HSV-1) (strain 17i); test: plaque-reduction assay, HSV-1 in Vero cells; format: cell-based; details: Human alphaherpesvirus 1, 2 or 3 days
Method: as §1, §2

[3] = tested on: complementary RNA sequences; format: binding; details: for Tm: pH 7; for ΔTm/mod: pH 7.0

Compound: CCOP(=O)(CC[C@H]1O[C@@H](n2cc(C)c(=O)[nH]c2=O)C[C@@H]1OC(=O)c1ccccc1)C[C@H]1C[C@H](n2cc(C)c(=O)[nH]c2=O)O[C@@H]1CO[Si](c1ccccc1)(c1ccccc1)C(C)(C)C (stereo partly drawn) [Compound 13]
- IC50 [1]: 1 to 10 µM
- IC50 [2]: 5 to 50 µM

Compound: CCOP(=O)(CC[C@H]1O[C@@H](n2cc(C)c(=O)[nH]c2=O)C[C@@H]1O)C[C@H]1C[C@H](n2cc(C)c(=O)[nH]c2=O)O[C@@H]1CO[Si](c1ccccc1)(c1ccccc1)C(C)(C)C (stereo partly drawn) [Compound 14]
- IC50 [1]: > 200 µM
- IC50 [2]: 20 to 200 µM

Compound: CCOP(=O)(CC[C@H]1O[C@@H](n2cc(C)c(=O)[nH]c2=O)C[C@@H]1OC(=O)c1ccccc1)C[C@H]1C[C@H](n2cc(C)c(=O)[nH]c2=O)O[C@@H]1CO (stereo partly drawn) [Compound 15]
- IC50 [1]: > 2 µM
- IC50 [2]: > 5 µM

Compound: Example 87: TTT T*TC TCT CTC TCT, T*T unit derived from Compound 81 (hydrolysed) (TTTTTCTCTCTCTCT; T*T modified dimer unit from Compound 81 (hydrolysed), chemistry not fully specified)
- Tm [3]: 45.7 °C
- ΔTm/mod [3]: -2.8 °C

Compound: Example 88: TTT T*TC TCT CTC TCT, T*T unit derived from Compound 81 (TTTTTCTCTCTCTCT; one T*T dimer with modified linkage from Compound 81, further chemistry not given here)
- Tm [3]: 46.8 °C
- ΔTm/mod [3]: -2.2 °C

Compound: Example 89: TTT T*TC TCT CTC TCT, T*T unit derived from Compound 81A (TTTTTCTCTCTCTCT; one T*T dimer with modified linkage from Compound 81A, further chemistry not given here)
- Tm [3]: 45.7 °C
- ΔTm/mod [3]: -3.3 °C

Compound: Example 90: TTT T*TC TCT CTC TCT, T*T unit derived from Compound 81B (TTTTTCTCTCTCTCT; one T*T dimer with modified linkage from Compound 81B, further chemistry not given here)
- Tm [3]: 47.2 °C
- ΔTm/mod [3]: -1.3 °C

Compound: Example 95: CTC GTA CT*T T*TC CGG TCC, T*T units derived from Compound 81 (hydrolysed) (CTCGTACTTTTCCGGTCC; two T*T dimers with modified linkage from hydrolysed Compound 81, further chemistry not given here)
- Tm [3]: 58.2 °C
- ΔTm/mod [3]: -1.6 °C

Compound: Example 96: CTC GTA CT*T T*TC CGG TCC, T*T units derived from Compound 81 (CTCGTACTTTTCCGGTCC; T*T modified units from Compound 81, chemistry not fully specified)
- Tm [3]: 58.5 °C
- ΔTm/mod [3]: -1.5 °C

Compound: Example 97: CTC GTA CT*T T*TC CGG TCC, T*T units derived from Compound 81A (CTCGTACTTTTCCGGTCC; T*T modified units from Compound 81A, chemistry not fully specified)
- Tm [3]: 57.9 °C
- ΔTm/mod [3]: -1.8 °C

Compound: Example 98: CTC GTA CT*T T*TC CGG TCC, T*T units derived from Compound 81B (CTCGTACTTTTCCGGTCC; T*T modified units from Compound 81B, chemistry not fully specified)
- Tm [3]: 58.8 °C
- ΔTm/mod [3]: -1.3 °C

Compound: Example 99: GCG T*TT *TT*T T*TT *TGC G, T*T indicating a unit derived from Compound 81 (hydrolysed) (GCGTTTTTTTTTTGCG; several T*T modified linkages from hydrolysed Compound 81, further chemistry not given here)
- Tm [3]: 39.6 °C
- ΔTm/mod [3]: -1.8 °C
